Assays:
HO-null cells = assay: Secondary filter for Myc specificity: cell growth inhibition, methylene blue staining; assay type: cell-based; details: Rattus norvegicus, 72 h, read-out: ID50 HO-null
Method: (§1) FIG. 4 illustrates the myc specificity of tested compounds. Rat1a cells expressing c-myc, L-myc or N-myc or lacking any Myc (null) were treated for 72 h with a range of hit compound concentrations. The cells were then fixed and stained with methylene blue and the percentage of cells in the presence of compound compared to DMSO only control was calculated.
(§2) Validated hits were divided into classes when two or more compounds shared significant structural similarity. The ID50 for N-myc transactivation (the inhibitory dose resulting in 50% decrease in luciferase activity) for each hit was calculated from the dose-response N-myc responsive reporter assay. Compounds within each class were ranked by their ID50 for N-myc transactivation and the best compounds within each class were chosen for further studies. In addition, the best of the structurally unique compounds were also analyzed. A total of 46 hits were passed through a secondary filter designed to determine the specificity of the hits for Myc proteins. For this filter, we used a panel of cell lines derived from Rat1a cells (kindly provided by Michael Cole, Dartmouth University): HO-null-c-Myc deficient cells due to homologous recombination that express neither N-myc nor L-myc HO-c-Myc, HO-L-myc and HO-N-myc derived by retroviral transduction of the corresponding Myc genes into HO-null cells. Since each cell line expresses only a single Myc or no Myc family members, we could identify compounds that act through Myc family members as well as which Myc family members. […] The 18 Myc-specific compounds identified during the screening and filtering process are presented in Table 1 and represent distinct classes of molecules, including pyrazoles (e.g., N147A7, N47E10, N147G5), tetrazoles (e.g., N77A7) and 3-bromophenol (e.g., N4G6).

HO-N-myc cells = assay: as above; assay type: cell-based, rat; details: for Myc Index N: ID50 in HO-null cells divided by ID50 in HO—N-myc cells; for IC50: Rattus norvegicus, cell growth inhibition, 72 h, methylene blue, read-out: ID50 HO—N-myc
Method: as §1, §2

HO-c-Myc cells = assay: as above; assay type: cell-based, rat; details: for IC50: Rattus norvegicus, cell growth inhibition, 72 h, methylene blue, read-out: ID50 HO-c-myc; for Myc Index C: ID50 in HO-null cells divided by ID50 in HO-c-myc cells
Method: as §1, §2

SK-Mel-103 = assay: Suppression of proliferation / senescence induction in melanoma line; assay type: cell-based; details: Homo sapiens
Excerpt: (§3) 260 analogs of N77A7 were selected from several commercially available libraries of small molecules based on the structural similarities with N77A7. The compounds were screened for the ability to permanently suppress proliferation and induce senescence in cells from melanoma lines SK-Mel-19 and SK-Mel-103. Based on the above-described screening procedure, seven small molecules were identified as having IC50 values lower than that of N77A7.

SK-Mel-19 = assay: as above; assay type: cell-based; details: Homo sapiens, SK-MEL19
Excerpt: as §3

in vitro = assay: in vitro
Method: Additionally, several of the N77A7 analogs were subjected to the test for the metabolic stability in human and mouse liver microsomes. Briefly, 1 μM of test compound was incubated with microsomal protein (human liver microsomes: 0.5 mg/mL; mouse liver microsomes 0.5 mg/mL) and buffer (100 mM potassium phosphate, pH 7.4, 5 mM magnesium chloride). The positive control was 5 μM testosterone. The reaction was equilibrated at 37 C in a shaking water bath for 3 to 5 minutes. After equilibration, an aliquot was removed and combined with 50/50 acetonitrile/water containing 0.1% formic acid and internal standard to terminate the reaction. 1 mM NADPH was immediately added and the tube was returned to the water bath. Five sample time points were taken (0, 10, 20, 30, and 60 minutes). Aliquots were removed and combined with 50/50 acetonitrile/water containing 0.1% formic acid and internal standard to terminate the reaction. The samples were mixed for 10 minutes and centrifuged. The supernatant from each sample was diluted (if necessary) and then transferred to vials for analysis by LC-MS/MS for the test compound and internal standard without calibration standards. The percent remaining at each time point was determined by the test compound's peak area response ratio versus the 0 minute sample.

[1] = human, microsomes, 1 μM, pH 7.4
[2] = mouse, microsomes, 1 μM, pH 7.4

Structure (SMILES) | IC50 (HO-null cells) [µM] | Myc Index N (HO-N-myc cells) | IC50 (HO-N-myc cells) [µM] | IC50 (HO-c-Myc cells) [µM] | Myc Index C (HO-c-Myc cells) | other results
c1ccc(-c2nnc(-c3ccccn3)nc2-c2ccccc2)cc1 [Compound N49C4] | 159 | 8.1 | ~728 | 19.6 |  | 
O=C(NC(NC(=S)Nc1ccc(I)cc1)C(Cl)(Cl)Cl)c1cccc([N+](=O)[O-])c1 (stereo not drawn) [Compound N121F3] | 23.5 | 2.4 | 9.7 | 11.3 | 2.1 | 
CCN(CC)c1ccc(/C=N\NC(=O)c2nnn(-c3nonc3N)c2CN2CCCCCC2)c(O)c1 [Compound 4] |  |  |  |  |  | IC50 (SK-Mel-103): 0.1 µM; IC50 (SK-Mel-19): 0.15 µM; Percent Remaining 0 min (in vitro; human, microsomes, 0 h, 1 μM, pH 7.4): 100%; Percent Remaining 10 min (in vitro; [1]): 56%; Percent Remaining 20 min (in vitro; [1]): 37%; Percent Remaining 30 min (in vitro; human, microsomes, 0.5 h, 1 μM, pH 7.4): 28%; Percent Remaining 60 min (in vitro; human, microsomes, 1 h, 1 μM, pH 7.4): 20%; half-life at 1 µM (in vitro; human, microsomes, pH 7.4): 16 min; microsomal CLint at 1 μM (in vitro; human, microsomes, pH 7.4): 87 µL/min/mg; Percent Remaining 0 min (in vitro; mouse, microsomes, 0 h, 1 μM, pH 7.4): 100%; Percent Remaining 10 min (in vitro; [2]): 3.1%; Percent Remaining 20 min (in vitro; [2]): 1.8%; Percent Remaining 30 min (in vitro; mouse, microsomes, 0.5 h, 1 μM, pH 7.4): 1.3%; Percent Remaining 60 min (in vitro; mouse, microsomes, 1 h, 1 μM, pH 7.4): <1.0%; half-life at 1 µM (in vitro; mouse, microsomes, pH 7.4): 2 min; microsomal CLint at 1 μM (in vitro; mouse, microsomes, pH 7.4): 690 µL/min/mg
CCOc1cccc(/C=N/NC(=O)CSc2nc3ccccc3[nH]2)c1O [Compound N144G3] | 83.2 | 4.7 | 17.8 | 25.8 | 3.22 | 
CC(=O)NC(c1ccc2c(c1)OCO2)c1ccc2cccnc2c1O (stereo not drawn) [Compound N103A8] | 7.57 | 4.5 | 1.69 | 1.62 | 4.7 | 
CCN(CC)c1ccc(/C=N/NC(=O)c2cc(Br)ccc2O)c(O)c1 [Compound N6008] | > 25 | >11 | 2.34 | 2.32 | >11 | 
CC(C)(C)c1cc(C(=O)N/N=C/c2ccc(O)cc2O)n(-c2ccccc2)n1 [Compound N47E10] | 7.21 | 5 | 1.44 | 2.54 | 2.8 | 
COc1ccc(OCC(=O)N/N=C\c2cc(O)c(O)c(Br)c2)c(Br)c1 [Compound N4G6] | > 100 | >10 | 10.2 | 32.6 | >3 | 
O=C(N/N=C\c1cc(Cc2ccccc2Cl)ccc1O)c1cncc(Br)c1 [Compound N171H10] | > 25 | >6 | 4 | 2.6 | >10 | 
Cc1ccc(/C=N/NC(=O)c2cc(-c3ccccc3)n[nH]2)c(O)c1 [Compound 1] |  |  |  |  |  | IC50 (SK-Mel-103): 2.5 µM; IC50 (SK-Mel-19): 4 µM
O=c1[nH]c2ccc(/N=C/c3cn(Cc4ccc(Cl)cc4Cl)c4ccccc34)cc2[nH]1 [Compound N18C5] | > 100 | >6 | 16 | > 100 |  | 
CN1C(=O)/C(=C\c2cn(Cc3ccccc3)c3ccccc23)C(=O)NC1=S [Compound N423F7] | 1980 | 17 | 120 | 89.1 | 22 | 
CC(C)Nc1ncnc2ccc(Br)cc12 [Compound N117G10] | 28.2 | 6 | 4.58 | 6.27 | 4.5 | 
O=[N+]([O-])c1cccc(Nc2ncnc3ccc(Br)cc23)c1 [Compound N117E2] | > 50 | >6 | 8.8 | 7.49 | >7 | 
C=CCc1cccc(/C=N/NC(=O)c2cc(C(C)(C)C)n[nH]2)c1O [Compound N147G5] | > 25 | >5 | 5 | 4.2 | >6 | 
O=C(COc1ccc2ccccc2c1)N/N=C\c1cc(O)c(O)c(Br)c1 [Compound N4D2] | > 100 | >1.1 | 88 | 33.8 | >3 | 
O=C(N/N=C/c1c(O)ccc2ccccc12)c1cc(C23CC4CC(CC(C4)C2)C3)n[nH]1 [Compound N147A7] | 5.12 | 2.7 | 1.9 | 3.94 | 1.3 | 
O=C(Oc1c(C(=O)Nc2ccc(Cl)c([N+](=O)[O-])c2)ccc2ccccc12)c1ccccc1 [Compound N6A8] | 21.1 | 2.2 | 9.71 | 8.86 | 2.4 | 
Nc1nonc1-n1nnc(C(=O)N/N=C/c2ccccc2O)c1CN1CCc2ccccc2C1 [Compound 5] |  |  |  |  |  | IC50 (SK-Mel-103): 0.35 µM; IC50 (SK-Mel-19): 0.6 µM
C[C@]12CC[C@H]3[C@@H](CCC4=CC(=O)CC[C@@]43C)[C@@H]1CC[C@@H]2O [Testosterone, testosterone, reference compound] |  |  |  |  |  | Percent Remaining 10 min (in vitro; human liver microsomes 0.5 mg/mL, 1 μM test compound (testosterone 5 μM)): 78%; Percent Remaining 30 min (in vitro; human liver microsomes 0.5 mg/mL, 1 μM test compound (testosterone 5 μM), 30 min): 40%; Percent Remaining 60 min (in vitro; human liver microsomes 0.5 mg/mL, 1 μM test compound (testosterone 5 μM), 60 min): 19%; Percent Remaining 0 min (in vitro; human liver microsomes 0.5 mg/mL, 1 μM test compound (testosterone positive control 5 μM), 0 min): 100%; half-life at 1 µM (in vitro; human, microsomes, pH 7.4): 23.9 min; Percent Remaining 10 min (in vitro; mouse liver microsomes 0.5 mg/mL, 1 μM test compound (testosterone 5 μM)): 19%; Percent Remaining 30 min (in vitro; mouse liver microsomes 0.5 mg/mL, 1 μM test compound (testosterone 5 μM), 30 min): <1.0%; Percent Remaining 60 min (in vitro; mouse liver microsomes 0.5 mg/mL, 1 μM test compound (testosterone 5 μM), 60 min): <1.0%; Percent Remaining 0 min (in vitro; mouse liver microsomes 0.5 mg/mL, 1 μM test compound (testosterone positive control 5 μM), 0 min): 100%; half-life at 1 µM (in vitro; mouse, microsomes, pH 7.4): 4.2 min

— patent US9387213B2, “Small molecules inhibiting oncoprotein Myc” (Health Research, Inc., priority 2012, dated 2016)
